Biological target: T1, human mAChR M1 (Homo sapiens, UniProt P11229)
T1 construct: host or cells: CHO-K1 (ATCC), stably transfected using Lipofectamine 2000
T1 sequence (P11229 1-460): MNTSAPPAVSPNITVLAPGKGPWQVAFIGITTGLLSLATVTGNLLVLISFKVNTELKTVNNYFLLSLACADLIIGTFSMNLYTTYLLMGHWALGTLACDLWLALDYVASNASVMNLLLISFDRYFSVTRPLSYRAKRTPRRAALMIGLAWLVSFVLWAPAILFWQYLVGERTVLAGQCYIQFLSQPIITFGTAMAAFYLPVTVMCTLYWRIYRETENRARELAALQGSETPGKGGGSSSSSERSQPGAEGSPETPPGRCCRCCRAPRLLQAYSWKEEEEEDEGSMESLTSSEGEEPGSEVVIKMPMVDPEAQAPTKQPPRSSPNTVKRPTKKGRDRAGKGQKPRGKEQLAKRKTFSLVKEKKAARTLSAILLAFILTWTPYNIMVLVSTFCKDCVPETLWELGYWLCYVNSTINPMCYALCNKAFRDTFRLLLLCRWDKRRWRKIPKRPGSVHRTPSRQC
Assay: mAChR M1 cell-based functional assay (calcium mobilization, Fluo-4, FDSS)
Details: CHO-K1 cells stably expressing hM1, calcium flux; for Emax: PAM mode with EC20 acetylcholine; for EC50: concentration-dependent increase in the EC20 acetylcholine response
Description: Chinese hamster ovary (CHO-K1) cells stably expressing rat (r)M1 were purchased from the American Type Culture Collection and cultured according to their indicated protocol. CHO cells stably expressing human (h)M2, hM3, and hM5 were described previously (Levey, et al., 1991); hM1 and hM4 cDNAs were purchased from Missouri S&T cDNA Resource; rM4 cDNA was provided by T. I. Bonner (National Institutes of Health, Bethesda, Md.). rM2 and rM3 were cloned from a rat brain cDNA library and sequence verified. hM1, rM2, rM3, hM4, and rM4 cDNAs were used to stably transfect CHO-K1 cells purchased from the American Type Culture Collection using Lipofectamine 2000. To make stable rM2, hM2, rM3, hM4, and rM4 cell lines for use in calcium mobilization assays, these cells also were stably transfected with a chimeric G-protein (Gqi5) (provided by B. R. Conklin, University of California, San Francisco) using Lipofectamine 2000. rM1, hM1, rM3, hM3, rM5, and hM5 cells were grown in Ham's F-12 medium containing 10% heat-inactivated fetal bovine serum (FBS), 20 mM HEPES, and 50 µg/mL G418 sulfate. rM2-Gqi5, hM2-Gqi5, and hM4-Gqi5 cells were grown in the same medium also containing 500 μg/mL Hygromycin B. Stable rM4-Gqi5 cells were grown in DMEM containing 10% heat-inactivated FBS, 20 mM HEPES, 400 μg/mL G418 sulfate, and 500 μg/mL Hygromycin B.
For high throughput measurement of agonist-evoked increases in intracellular calcium, CHO-K1 cells stably expressing muscarinic receptors were plated in growth medium lacking G418 and hygromycin at 15,000 cells/20 μL/well in Greiner 384-well black-walled, tissue culture (TC)-treated, clear-bottom plates (VWR). Cells were incubated overnight at 37° C. and 5% CO2. The next day, cells were washed using an ELX 405 (BioTek) with four washes ([…]) of assay buffer then aspirated to 20 μL. Next, 20 μL of 16 μM Fluo-4/acetoxymethyl ester (Invitrogen, Carlsbad, Calif.) prepared as a 2.3 mM stock in DMSO and mixed in a 1:1 ratio with 10% (w/v) Pluronic F-127 and diluted in assay buffer was added to the wells and the cell plates were incubated for 50 min at 37° C. and 5% CO2. Dye was removed by washing with the ELX 405 (four 80 μL washes of assay buffer) then aspirated to 20 μL. Compound master plates were formatted in an 11 point CRC format (1:3 dilutions) in 100% DMSO with a starting concentration of 10 mM using the BRAVO liquid handler (Agilent). Test compound CRCs were then transferred to daughter plates (240 nL) using the Echo acoustic plate reformatter (Labcyte, Sunnyvale, Calif.) and then diluted into assay buffer (40 μL) to a 2× stock using a Thermo Fisher Combi (Thermo Fisher Scientific, Waltham, Mass.).
Calcium flux was measured using the Functional Drug Screening System (FDSS) 6000 (Hamamatsu Corporation, Tokyo, Japan) as an increase in the fluorescent static ratio. Compounds were applied to cells (20 μL, 2×) using the automated system of the FDSS 6000 at 4 s into the 300 s protocol and the data were collected at 1 Hz. At 144 s into the 300s protocol, 10 μL of an EC20 concentration of the muscarinic receptor agonist acetylcholine was added (5×), followed by the addition of 12 μL an EC80 concentration of acetylcholine at the 230 s time point (5×). Agonist activity was analyzed as a concentration-dependent increase in calcium mobilization upon compound addition. Positive allosteric modulator activity was analyzed as a concentration-dependent increase in the EC20 acetylcholine response. Antagonist activity was analyzed as a concentration-dependent decrease in the EC80 acetylcholine response. Concentration-response curves were generated using a four-parameter logistical equation in XLfit curve fitting software (IDBS, Bridgewater, N.J.) for Excel (Microsoft, Redmond, Wash.) or Prism (GraphPad Software, Inc., San Diego, Calif.).
Activity (EC50 and Emax) was determined in the mAChR M1 cell-based functional assay as described above and the data are shown in Table 2. […]

## COCCn1ncc2c1C(=O)N(Cc1c(F)cc(-c3cccc4nn(C)cc34)cc1F)C2 [Compound 18, 5-(2,6-difluoro-4-(2-methyl-2H-indazol-4-yl)benzyl)-1-(2-methoxyethyl)-4,5-dihydropyrrolo[3,4-c]pyrazol-6(1H)-one]
  Emax: 87%
  EC50: 3100 nM

## Cc1[nH]cc2c1C(=O)N(Cc1c(F)cc(-c3cccc4nn(C)cc34)cc1F)C2 [Compound 61, 2-(2,6-difluoro-4-(2-methyl-2H-indazol-4-yl)benzyl)-6-methyl-3,5-dihydropyrrolo[3,4-c]pyrrol-1(2H)-one]
  Emax: 51%

## Cn1cc(-c2cc(F)c(CN3Cc4ccn(CC5CCCO5)c4C3=O)c(F)c2)cn1 (stereo not shown) [Compound 50, 5-(2,6-difluoro-4-(1-methyl-1H-pyrazol-4-yl)benzyl)-1-((tetrahydrofuran-2-yl)methyl)-4,5-dihydropyrrolo[3,4-b]pyrrol-6(1H)-one]
  Emax: 38%
  EC50: 3440 nM

## Cn1cc2c(-c3cc(F)c(CN4Cc5ccn(CCCO)c5C4=O)c(F)c3)cccc2n1 [Compound 54, 5-(2,6-difluoro-4-(2-methyl-2H-indazol-4-yl)benzyl)-1-(3-hydroxypropyl)-4,5-dihydropyrrolo[3,4-b]pyrrol-6(1H)-one]
  Emax: 69%
  EC50: 5580 nM

## O=C1c2scnc2CN1Cc1c(F)cc(-c2ccc3nccn3c2)cc1F [Compound 15, 5-(2,6-difluoro-4-(imidazo[1,2-a]pyridin-6-yl)benzyl)-4,5-dihydro-6H-pyrrolo[3,4-d]thiazol-6-one]
  Emax: 55%

## O=C1c2ccsc2CN1Cc1c(F)cc(-c2ccc3nccn3c2)cc1F [Compound 30, 5-(2,6-difluoro-4-(imidazo[1,2-a]pyridin-6-yl)benzyl)-5,6-dihydro-4H-thieno[2,3-c]pyrrol-4-one]
  Emax: 30%
  EC50: 500 nM

## Cn1cc2cc(-c3cc(F)c(CN4Cc5ccsc5C4=O)c(F)c3)ccc2n1 [Compound 31, 5-(2,6-difluoro-4-(2-methyl-2H-indazol-5-yl)benzyl)-4,5-dihydro-6H-thieno[2,3-c]pyrrol-6-one]
  Emax: 40%
  EC50: 246 nM

## Cn1cc2c(-c3cc(F)c(CN4Cc5ncsc5C4=O)c(F)c3)cccc2n1 [Compound 5, 5-(2,6-difluoro-4-(2-methyl-2H-indazol-4-yl)benzyl)-4,5-dihydro-6H-pyrrolo[3,4-d]thiazol-6-one]
  Emax: 73%

## Cc1ccc(-c2cc(F)c(CN3Cc4ncsc4C3=O)c(F)c2)cn1 [Compound 23, 5-(2,6-difluoro-4-(6-methylpyridin-3-yl)benzyl)-4,5-dihydro-6H-pyrrolo[3,4-d]thiazol-6-one]
  Emax: 27%

## Cn1cc2c(-c3cc(F)c(CN4Cc5ccn(CC6CCOCC6)c5C4=O)c(F)c3)cccc2n1 [Compound 55, 5-(2,6-difluoro-4-(2-methyl-2H-indazol-4-yl)benzyl)-1-((tetrahydro-2H-pyran-4-yl)methyl)-4,5-dihydropyrrolo[3,4-b]pyrrol-6(1H)-one]
  Emax: 59%
  EC50: 8980 nM

## Cn1cc2c(-c3cc(F)c(CN4Cc5cc[nH]c5C4=O)c(F)c3)cccc2n1 [Compound 9, 5-(2,6-difluoro-4-(2-methyl-2H-indazol-4-yl)benzyl)-4,5-dihydropyrrolo[3,4-b]pyrrol-6(1H)-one]
  Emax: 36%
  EC50: 1880 nM

## Cn1cc(-c2cc(F)c(CN3Cc4cn(CC5CCCO5)nc4C3=O)c(F)c2)cn1 (stereo not shown) [Compound 34, 5-(2,6-difluoro-4-(1-methyl-1H-pyrazol-4-yl)benzyl)-2-((tetrahydrofuran-2-yl)methyl)-4,5-dihydropyrrolo[3,4-c]pyrazol-6(2H)-one]
  Emax: 35%

## Cn1cc2cc(-c3ccc(CN4Cc5sccc5C4=O)c(F)c3)ccc2n1 [Compound 44, 5-(2-fluoro-4-(2-methyl-2H-indazol-5-yl)benzyl)-5,6-dihydro-4H-thieno[2,3-c]pyrrol-4-one]
  Emax: 51%
  EC50: 2780 nM

## Cn1cc2c(-c3cc(F)c(CN4Cc5ccn(C)c5C4=O)c(F)c3)cccc2n1 [Compound 4, 5-(2,6-difluoro-4-(2-methyl-2H-indazol-4-yl)benzyl)-1-methyl-4,5-dihydropyrrolo[3,4-b]pyrrol-6(1H)-one]
  Emax: 36%
  EC50: 1880 nM

## Cn1cc2c(-c3cc(F)c(CN4Cc5ccn(CC6CCCO6)c5C4=O)c(F)c3)cccc2n1 (stereo not shown) [Compound 49, 5-(2,6-difluoro-4-(2-methyl-2H-indazol-4-yl)benzyl)-1-((tetrahydrofuran-2-yl)methyl)-4,5-dihydropyrrolo[3,4-b]pyrrol-6(1H)-one]
  Emax: 60%
  EC50: 6450 nM

## Cn1cc2cccc(-c3cc(F)c(CN4Cc5cnn(CC6CCCO6)c5C4=O)c(F)c3)c2n1 (stereo not shown) [Compound 38, 5-(2,6-difluoro-4-(2-methyl-2H-indazol-7-yl)benzyl)-1-((tetrahydrofuran-2-yl)methyl)-4,5-dihydropyrrolo[3,4-c]pyrazol-6(1H)-one]
  Emax: 66%
  EC50: 6890 nM

## Cn1cc2cc(-c3cc(F)c(CN4Cc5sccc5C4=O)c(F)c3)ccc2n1 [Compound 26, 5-(2,6-difluoro-4-(2-methyl-2H-indazol-5-yl)benzyl)-5,6-dihydro-4H-thieno[2,3-c]pyrrol-4-one]
  Emax: 59%
  EC50: 1020 nM

## CCn1ccc2c1C(=O)N(Cc1c(F)cc(-c3cccc4nn(C)cc34)cc1F)C2 [Compound 53, 5-(2,6-difluoro-4-(2-methyl-2H-indazol-4-yl)benzyl)-1-ethyl-4,5-dihydropyrrolo[3,4-b]pyrrol-6(1H)-one]
  Emax: 63%

## COCCn1cc2c(n1)C(=O)N(Cc1c(F)cc(-c3cccc4nn(C)cc34)cc1F)C2 [Compound 19, 5-(2,6-difluoro-4-(2-methyl-2H-indazol-4-yl)benzyl)-2-(2-methoxyethyl)-4,5-dihydropyrrolo[3,4-c]pyrazol-6(2H)-one]
  Emax: 45%
